Patent US9072675B2, “Non-irritating benzoyl peroxide” (Essential Ingredients, Inc., priority 2010, dated 2015)

Tested on: skin of the infrascapular regions of the back
Assay: Cumulative irritation patch test (12 days, semi-occlusive patches)
Details: 25 subjects, 24 hour semi-occlusive patches over 12 days, daily score capped at 3; maximum 900
Procedure: Twenty-five subjects ages 20-65 were requested to bathe or wash as usual before arrival at the facility. Qualified subjects were then prepared for patch application by having the test sites wiped with alcohol and air-dried. […] Patches were applied for approximately a 24 hour period, then removed and discarded by the subject approximately two hours prior to grading. All induction patches were applied to the same sites unless the degree of reaction (cumulative grade 3) to a material or the adhesive necessitated removal. The skin adjacent to the patches was marked using a surgical marker or other suitable marking pen. Prior to each reapplication, the test sites were evaluated. At the final visit, no patches were applied and the patch sites were graded. Skin responses were evaluated according to the following scale by a technical associate of AMA Laboratories, Inc. (scorer) trained in the evaluation of skin using consistent adequate lighting from a 60-watt incandescent blue day light bulb to illuminate the patch area. All reasonable attempts were made to ensure that the same individual did all of the scoring of reactions to the test articles during the course of the study, and was blinded to the treatment assignments and any previous scores. […]

CCCCCCCCCCCCOS(=O)(=O)[O-].[Na+] [Sodium Lauryl Sulfate]
total cumulative irritancy score: 78
